Assay results from US7414041B2 (Trustees Of Tufts College, priority 1991, dated 2008).
In brackets after ≈: the same amount, converted by molar mass. Like-named read-outs stand apart in the source and are kept apart here.

Experiments:
[1] = tested on: E. faecalis Tc^s (ATCC9790r); experiment: susceptibility testing MIC/MLC, drug alone; type: cell-based
[2] = tested on: E. faecalis Tc^r (L) (ATCC9790r/Tet L); type: cell-based; conditions: Tc^r (L)
efflux protein = target: T1, efflux protein (Escherichia coli, UniProt P02980); experiment: everted membrane vesicle assay, blocking activity of 13-S-derivatives (Ki); type: biochemical
T1 sequence (P02980 1-401): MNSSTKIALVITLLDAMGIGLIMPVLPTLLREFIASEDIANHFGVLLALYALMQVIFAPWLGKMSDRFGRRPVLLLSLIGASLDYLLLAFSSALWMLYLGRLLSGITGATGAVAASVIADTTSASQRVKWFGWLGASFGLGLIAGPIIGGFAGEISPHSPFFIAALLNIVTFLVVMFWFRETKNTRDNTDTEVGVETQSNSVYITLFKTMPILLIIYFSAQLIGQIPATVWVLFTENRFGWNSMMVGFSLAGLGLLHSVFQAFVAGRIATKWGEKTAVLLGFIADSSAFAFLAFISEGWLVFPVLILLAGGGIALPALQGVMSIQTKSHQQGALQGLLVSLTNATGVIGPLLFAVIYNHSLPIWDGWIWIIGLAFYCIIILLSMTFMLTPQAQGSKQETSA

[3] = tested on: E. coli Class A Tc^r (DI-299); type: cell-based
[4] = tested on: E. faecalis Tc^r (M) (ATCC9790r/Tet M); type: cell-based
S. aureus Tc^r (RN4250) = type: cell-based; conditions: Tc^r RN4250
[5] = tested on: E. coli Tc^s (MI 300-225); experiment: susceptibility testing MIC/MLC, drug alone; type: cell-based
S. aureus Tc^s (RN450) = experiment: susceptibility testing MIC/MLC, drug alone; type: cell-based
[6] = tested on: E. coli Class β Tc^r (DI-209); type: cell-based

In the case of `CCSCC1c2cccc(O)c2C(=O)C2=C(O)C3(O)C(=O)C(C(N)=O)=C(O)C(N(C)C)C3CC21` (stereo not drawn) [Ethyl, 6-deoxy-13-(ethylmercapto) tetracycline], the “MIC” value ([1]; 1st column) is reported as 1 ± 0.6 µg, the “MIC” value ([1]; 2nd column) is reported as 40 ± 0.25 µg and the “MIC” value ([2]; 1st column) is reported as 4 ± 1 µg. The “MIC” value ([2]; 2nd column) was 100 ± 0.25 µg, the Ki (efflux protein) was 0.4 µg/mL (≈ 0.819 µM) and the “MIC” value ([3]; 1st column) was 14 ± 4 µg. For the same compound, the “MIC” value ([3]; 2nd column) was 46 ± 6 µg, the “MIC” value ([4]; 1st column) was 25 ± 6 µg and the “MIC” value ([4]; 2nd column) was >200 µg. For the same compound, the “MIC” value (S. aureus Tc^r (RN4250)) was 5 ± 2 µg, the “MLC” value (S. aureus Tc^r (RN4250); kills 99.9%) was 30 ± 10 µg and the “MIC” value ([5]; Tc^s, 1st column) was 6 ± 0.26 µg. For the same compound, the “MIC” value ([5]; Tc^s, 2nd column) was 60 µg, the MIC ([5]; susceptible E. coli) was 5 µg/mL (≈ 10.2 µM) and the “MIC” value (S. aureus Tc^s (RN450)) was 0.5 ± 0.25 µg. The “MLC” value (S. aureus Tc^s (RN450); kills 99.9%) was 4 µg, the “MIC” value ([6]; 1st column) was 36 ± 16 µg and the “MIC” value ([6]; 2nd column) was 60 ± 10 µg.
